# Data published in patent publication US6969738B2, “Malic acid diester surfactants” (Air Products and Chemicals, Inc., priority 1999, dated 2005).
# Experiment: Solubility limit in water from surface tension/ln concentration curve
# Assay type: physicochemical
# Conditions: distilled water, 25° C.
# Procedure: (§1) Solutions of the materials of Examples 1-10 in distilled water were prepared. […] The pC20 value is defined as the negative logarithm of the molar concentration of surfactant required to decrease the surface tension of an aqueous solution to […], that is, 20 dyne/cm below that of pure water when the measurement is performed at 0.1 b/s. This value is a measure of the efficiency of a surfactant. […] In addition, the relative efficiency of surfactants can be obtained by comparing surface tension reduction of solutions containing the same amount of different surfactants. Such data is given for 0.1 wt % solutions of the dialkylmalates at 1.0 and 6.0 bubbles/second (b/s). The solubility limit was determined by intersection of the linear portion of a surface tension/In concentration curve with the limiting surface tension as is described in many textbooks. The limiting surface tensions at 0.1, 1, 6 and 20 b/s represent the lowest surface tensions in water which can be achieved at the given surface creation rates for a given surfactant regardless of the amount of surfactant used and is used to evaluate the effectiveness of a surfactant. These values give information about the relative ability of a surfactant to reduce surface defects under near-equilibrium conditions (0.1 b/s) through very dynamic conditions (20 b/s). Lower surface tensions would allow the elimination of defects upon application of a formulation onto lower energy surfaces.
row,Compound,solubility limit [Weight %]
1,"CC(C)COC(=O)CC(O)C(=O)OCC(C)C (racemic) [Example 3, Diisobutyl-DL-malate]",0.4
2,"CCC(C)OC(=O)CC(O)C(=O)OC(C)CC (racemic) [Example 4, Di-sec-butyl-DL-malate]",0.6
3,"CCCCCOC(=O)CC(O)C(=O)OCCCCC (racemic) [Example 5, Dipentyl-DL-malate]",0.03

# Results, then the compound that gave them:
row,solubility limit [Weight %],Compound
1,0.3,"CCCCOC(=O)CC(O)C(=O)OCCCC (racemic) [Example 2, Dibutyl-DL-malate]"
2,0.04,"CC(C)CCOC(=O)CC(O)C(=O)OCCC(C)C (racemic) [Example 6, Diisoamyl-DL-malate]"

# Experiment: Foam test of 0.1 wt % solutions, procedure based upon ASTM D 1173-53
# Assay type: physicochemical
# Conditions: 0.1 wt % solution
# Procedure: The foaming properties of 0.1 wt % solutions of the dialkylmalate surfactants of this invention were examined using a procedure based upon ASTM D 1173-53. In this test, a 0.1 wt % solution of the surfactant is added from an elevated foam pipette to a foam receiver containing the same solution. The foam height is measured at the completion of the addition (“Initial Foam Height”) and the time required for the foam to dissipate at the air-liquid interface (“Time to 0 Foam”) is recorded. This test provides a comparison between the foaming characteristics of various surfactant solutions. In general, in coatings, inks, adhesives, fountain solutions and agricultural compositions, foam is undesirable because it complicates handling and can lead to coating and print defects, and to inefficient application of agricultural materials.
Compound,initial foam [cm],time to zero foam [s]
"CC(C)COC(=O)CC(O)C(=O)OCC(C)C (racemic) [Example 3, Diisobutyl-DL-malate]",0.6,0.2
"CCC(C)OC(=O)CC(O)C(=O)OC(C)CC (racemic) [Example 4, Di-sec-butyl-DL-malate]",1.0,60
"CCCCCOC(=O)CC(O)C(=O)OCCCCC (racemic) [Example 5, Dipentyl-DL-malate]",0.5,0.2

# The remaining lines, values ahead:
initial foam [cm],time to zero foam [s],Compound
0.9,20,"CCCCOC(=O)CC(O)C(=O)OCCCC (racemic) [Example 2, Dibutyl-DL-malate]"
0.3,0.3,"CC(C)CCOC(=O)CC(O)C(=O)OCCC(C)C (racemic) [Example 6, Diisoamyl-DL-malate]"

# Experiment: Dynamic surface tension of aqueous solutions, maximum bubble pressure method
# Assay type: physicochemical
# Conditions: 0.1 wt % solution, 25° C., 1 b/s
# From the text: In the following Examples dynamic surface tension data were obtained for aqueous solutions of various compounds using the maximum bubble pressure method at bubble rates from 0.1 bubbles/second (b/s) to 20 b/s. […] In practical terms, high bubble rates correspond to high printing speeds in lithographic printing, high spray or roller velocities in coating applications, and rapid application rates for agricultural products.
# as §1
row,Compound,γ(0.1 wt % solution) (1 b/s) [dyne/cm]
1,"CC(C)COC(=O)CC(O)C(=O)OCC(C)C (racemic) [Example 3, Diisobutyl-DL-malate]",44.1
2,"CCC(C)OC(=O)CC(O)C(=O)OC(C)CC (racemic) [Example 4, Di-sec-butyl-DL-malate]",47.8
3,"CCCCCOC(=O)CC(O)C(=O)OCCCCC (racemic) [Example 5, Dipentyl-DL-malate]",38.2

# Results, then the compound that gave them:
row,γ(0.1 wt % solution) (1 b/s) [dyne/cm],Compound
1,43.8,"CCCCOC(=O)CC(O)C(=O)OCCCC (racemic) [Example 2, Dibutyl-DL-malate]"
2,36.8,"CC(C)CCOC(=O)CC(O)C(=O)OCCC(C)C (racemic) [Example 6, Diisoamyl-DL-malate]"

# Same assay, conditions: 0.1 wt % solution, 25° C., 6 b/s
row,Compound,γ(0.1 wt % solution) (6 b/s) [dyne/cm]
1,"CC(C)COC(=O)CC(O)C(=O)OCC(C)C (racemic) [Example 3, Diisobutyl-DL-malate]",45.2
2,"CCC(C)OC(=O)CC(O)C(=O)OC(C)CC (racemic) [Example 4, Di-sec-butyl-DL-malate]",48.5
3,"CCCCCOC(=O)CC(O)C(=O)OCCCCC (racemic) [Example 5, Dipentyl-DL-malate]",40.5

# Continued, values first:
row,γ(0.1 wt % solution) (6 b/s) [dyne/cm],Compound
1,44.8,"CCCCOC(=O)CC(O)C(=O)OCCCC (racemic) [Example 2, Dibutyl-DL-malate]"
2,39.5,"CC(C)CCOC(=O)CC(O)C(=O)OCCC(C)C (racemic) [Example 6, Diisoamyl-DL-malate]"

# Same assay, conditions: 20 b/s
row,decrease in the limiting surface tension compared to dibutyl-DL-malate [dyne/cm],Compound
1,3.3,"CC(C)COC(=O)CC(O)C(=O)OCC(C)C (racemic) [Example 3, Diisobutyl-DL-malate]"

# Same assay, conditions: negative logarithm of molar concentration giving 52.1 dyne/cm at 0.1 b/s, 25° C.
row,Compound,pC20
1,"CC(C)COC(=O)CC(O)C(=O)OCC(C)C (racemic) [Example 3, Diisobutyl-DL-malate]",3.08
2,"CCC(C)OC(=O)CC(O)C(=O)OC(C)CC (racemic) [Example 4, Di-sec-butyl-DL-malate]",2.77
3,"CCCCCOC(=O)CC(O)C(=O)OCCCCC (racemic) [Example 5, Dipentyl-DL-malate]",3.52

# More lines, now with the values ahead:
row,pC20,Compound
1,3.04,"CCCCOC(=O)CC(O)C(=O)OCCCC (racemic) [Example 2, Dibutyl-DL-malate]"
2,3.86,"CC(C)CCOC(=O)CC(O)C(=O)OCCC(C)C (racemic) [Example 6, Diisoamyl-DL-malate]"

# Same assay, conditions: water, 25° C., 0.1 b/s
row,Compound,limiting γ (0.1 b/s) [Dyne/cm]
1,"CC(C)COC(=O)CC(O)C(=O)OCC(C)C (racemic) [Example 3, Diisobutyl-DL-malate]",33.5
2,"CCC(C)OC(=O)CC(O)C(=O)OC(C)CC (racemic) [Example 4, Di-sec-butyl-DL-malate]",36.5
3,"CCCCCOC(=O)CC(O)C(=O)OCCCCC (racemic) [Example 5, Dipentyl-DL-malate]",36.8

# Results, then the compound that gave them:
row,limiting γ (0.1 b/s) [Dyne/cm],Compound
1,35.8,"CCCCOC(=O)CC(O)C(=O)OCCCC (racemic) [Example 2, Dibutyl-DL-malate]"
2,35.6,"CC(C)CCOC(=O)CC(O)C(=O)OCCC(C)C (racemic) [Example 6, Diisoamyl-DL-malate]"

# Same assay, conditions: water, 25° C., 1 b/s
row,Compound,limiting γ (1 b/s) [Dyne/cm]
1,"CC(C)COC(=O)CC(O)C(=O)OCC(C)C (racemic) [Example 3, Diisobutyl-DL-malate]",33.3
2,"CCC(C)OC(=O)CC(O)C(=O)OC(C)CC (racemic) [Example 4, Di-sec-butyl-DL-malate]",36.7
3,"CCCCCOC(=O)CC(O)C(=O)OCCCCC (racemic) [Example 5, Dipentyl-DL-malate]",38.2

# Second part, the compound after the results:
row,limiting γ (1 b/s) [Dyne/cm],Compound
1,36.0,"CCCCOC(=O)CC(O)C(=O)OCCCC (racemic) [Example 2, Dibutyl-DL-malate]"
2,36.8,"CC(C)CCOC(=O)CC(O)C(=O)OCCC(C)C (racemic) [Example 6, Diisoamyl-DL-malate]"

# Same assay, conditions: water, 25° C., 6 b/s
row,Compound,limiting γ (6 b/s) [Dyne/cm]
1,"CC(C)COC(=O)CC(O)C(=O)OCC(C)C (racemic) [Example 3, Diisobutyl-DL-malate]",33.4
2,"CCC(C)OC(=O)CC(O)C(=O)OC(C)CC (racemic) [Example 4, Di-sec-butyl-DL-malate]",37.3
3,"CCCCCOC(=O)CC(O)C(=O)OCCCCC (racemic) [Example 5, Dipentyl-DL-malate]",40.5

# Now from value to compound:
row,limiting γ (6 b/s) [Dyne/cm],Compound
1,36.5,"CCCCOC(=O)CC(O)C(=O)OCCCC (racemic) [Example 2, Dibutyl-DL-malate]"
2,39.5,"CC(C)CCOC(=O)CC(O)C(=O)OCCC(C)C (racemic) [Example 6, Diisoamyl-DL-malate]"

# Same assay, conditions: water, 25° C., 20 b/s
row,Compound,limiting γ (20 b/s) [Dyne/cm]
1,"CC(C)COC(=O)CC(O)C(=O)OCC(C)C (racemic) [Example 3, Diisobutyl-DL-malate]",35.3
2,"CCC(C)OC(=O)CC(O)C(=O)OC(C)CC (racemic) [Example 4, Di-sec-butyl-DL-malate]",38.1
3,"CCCCCOC(=O)CC(O)C(=O)OCCCCC (racemic) [Example 5, Dipentyl-DL-malate]",50.1

# Now from value to compound:
row,limiting γ (20 b/s) [Dyne/cm],Compound
1,38.6,"CCCCOC(=O)CC(O)C(=O)OCCCC (racemic) [Example 2, Dibutyl-DL-malate]"
2,48.0,"CC(C)CCOC(=O)CC(O)C(=O)OCCC(C)C (racemic) [Example 6, Diisoamyl-DL-malate]"

# Same assay, conditions: water, 25° C., 20 b/s; listed as diisobutyl-DL-malate
row,limiting γ (20 b/s),Compound
1,less than 36 Dyne/cm,"CC(C)COC(=O)CC(O)C(=O)OCC(C)C (racemic) [Example 3, Diisobutyl-DL-malate]"
